Measurements published in US9474755B2, “GLP-1 receptor modulators” (Receptos, Inc., priority 2014, dated 2016).

Target: T1, GLP-1R (Homo sapiens, UniProt P43220)
T1 construct: host or cells: CRE-bla CHO-K1
Assay: EC20 GLP-1(9-36) PAM cAMP Assay: dose response of compound in the presence of fixed concentration of GLP-1(9-36)
Format: cell-based
Conditions: GLP-1R CRE-bla CHO-K1 cells, in presence of fixed concentration of GLP-1(9-36), 30 min at 37° C.
Procedure: EC20 GLP-1(9-36) PAM cAMP Assay: Dose Response of Compound in the Presence of Fixed Concentration of GLP-1 (9-36).
GLP-1R CRE-bla CHO-K1 cells cultured in growth medium (DMEM-High glucose, 10% dialyzed FBS, 0.1 mM NEAA, 25 mM Hepes, 100 U/mL penicillin/100 μg/mL streptomycin, 5 μg/mL Blasticidin, 600 μg/mL Hygromycin) were trypsinized and plated in suspension into 384 well white flat bottom plates at 5000 cells/well in 12 μL assay buffer (Hanks Balanced Salt solution, 10 mM Hepes, 0.1% BSA, 10 pH 7.4). A 5× compound dose response curve (12-point) was generated in assay buffer containing 1.5 mM IBMX, 4% DMSO. GLP-1(9-36) was diluted to 4.2 μM in assay buffer containing 1.5 mM IBMX and 4% DMSO. The 5× compound dose response was added (3 μL), followed by 0.5 μL of GLP-1(9-36) and cells were incubated for 30 min at 37° C. Direct detection of cAMP was carried out using DiscoveRx HitHunter cAMP kit according to manufacturer's instructions and luminescence was read using a SpectraMax M5 plate reader. Luminescence was converted to total cAMP using a cAMP standard curve and data was analyzed by non-linear regression to determine the EC50 and Emax.

T1 sequence (P43220 24-463): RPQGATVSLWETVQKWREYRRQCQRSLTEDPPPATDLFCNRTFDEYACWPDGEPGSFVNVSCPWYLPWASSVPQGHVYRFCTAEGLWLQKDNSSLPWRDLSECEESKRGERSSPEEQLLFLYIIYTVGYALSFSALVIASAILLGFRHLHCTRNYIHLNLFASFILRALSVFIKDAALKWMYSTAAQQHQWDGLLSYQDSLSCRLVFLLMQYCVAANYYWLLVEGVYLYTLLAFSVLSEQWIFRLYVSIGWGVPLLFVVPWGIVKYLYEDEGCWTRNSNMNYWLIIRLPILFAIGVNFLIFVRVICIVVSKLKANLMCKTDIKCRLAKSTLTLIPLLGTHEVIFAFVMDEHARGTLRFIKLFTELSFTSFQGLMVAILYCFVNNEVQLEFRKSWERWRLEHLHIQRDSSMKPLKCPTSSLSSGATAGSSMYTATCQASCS
T1 sequence (P01275 100-127 partner limits assumed): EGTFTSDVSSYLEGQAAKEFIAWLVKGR

Row | Structure (SMILES) | EC50
1 | CCCC1CCC(C2CCC(c3cnc(-c4ccc(C[C@H](NC(=O)c5ccc(C(C)(C)C)nc5)C(=O)N5CC(C(=O)O)C5)cc4)nc3)CC2)CC1 (some centres unmarked) [Compound 28] | 5000 to 10000 nM
2 | C[C@@H](NC(=O)[C@H](Cc1ccc(-c2ncc(C3=CCCCC3)cn2)cc1)NC(=O)c1ccc(C(C)(C)C)s1)C(=O)O [Compound 54] | 5000 to 10000 nM
3 | CCCC1CCC(C2CC=C(c3cnc(-c4ccc(C[C@H](NC(=O)c5cnc(C(C)(C)C)nc5)C(=O)N5CC(C(=O)O)C5)cc4)nc3)CC2)CC1 (some centres unmarked) [Compound 15] | < 500 nM
4 | C[C@@H](NC(=O)[C@H](Cc1ccc(-c2ncc(C3=CCC(c4ccccc4)CC3)cn2)cc1)NC(=O)c1ccc(C(C)(C)C)s1)C(=O)O (some centres unmarked) [Compound 10] | < 500 nM
5 | CCCC1CCC(C2CCC(c3cnc(-c4ccc(C[C@H](NC(=O)c5ccc(C(C)C)s5)C(=O)N5CC(C(=O)O)C5)cc4)nc3)CC2)CC1 (some centres unmarked) [Compound 16] | 500 to 2500 nM
6 | C[C@@H](NC(=O)[C@H](Cc1ccc(-c2ncc(C3=CCC(C(C)(C)C)CC3)cn2)cc1)NC(=O)c1ccc(C(C)(C)C)s1)C(=O)O (some centres unmarked) [Compound 56] | < 500 nM
7 | CCCC1CCC(C2CC=C(c3cnc(-c4ccc(C[C@H](NC(=O)c5ccc(C(C)(C)C)s5)C(=O)O)cc4)nc3)CC2)CC1 (some centres unmarked) [Compound 9] | 500 to 2500 nM
8 | CCCCCC1CC=C(c2cnc(-c3ccc(C[C@H](NC(=O)c4ccc(C(C)(C)C)s4)C(=O)N4CC(C(=O)O)C4)cc3)nc2)CC1 (some centres unmarked) [Compound 38] | 500 to 2500 nM
9 | CCCC1CCC(C2CC=C(c3cnc(-c4ccc(C[C@H](NC(=O)c5cc6cc(OC)ccc6[nH]5)C(=O)N5CC(C(=O)O)C5)cc4)nc3)CC2)CC1 (some centres unmarked) [Compound 33] | 500 to 2500 nM
10 | CCCC1CCC(C2CC=C(c3cnc(-c4ccc(C[C@H](NC(=O)c5ccc(C(C)C)cc5)C(=O)N5CC(C(=O)O)C5)cc4)nc3)CC2)CC1 (some centres unmarked) [Compound 13] | < 500 nM
11 | CCCC1CCC(C2CC=C(c3cnc(-c4ccc(C[C@H](NC(=O)c5ccc(C(C)=O)cc5)C(=O)N5CC(C(=O)O)C5)cc4)nc3)CC2)CC1 (some centres unmarked) [Compound 30] | 500 to 2500 nM
12 | CC(C)(C)c1ccc(C(=O)N[C@@H](Cc2ccc(-c3ncc(C4=CCC(C(C)(C)C)CC4)cn3)cc2)C(=O)N2CC(C(=O)O)C2)s1 (some centres unmarked) [Compound 36] | < 500 nM
13 | CCCC1CCC(C2CC=C(c3cnc(-c4ccc(C[C@H](NC(=O)c5cnn(C(C)(C)C)c5)C(=O)N5CC(C(=O)O)C5)cc4)nc3)CC2)CC1 (some centres unmarked) [Compound 19] | 500 to 2500 nM
14 | CC1CC=C(c2cnc(-c3ccc(C[C@H](NC(=O)c4ccc(C(C)(C)C)s4)C(=O)N[C@H](C)C(=O)O)cc3)nc2)CC1 (some centres unmarked) [Compound 55] | 2500 to 5000 nM
15 | C[C@@H](NC(=O)[C@H](Cc1ccc(-c2ncc(C3=CCC(C)(C)CC3)cn2)cc1)NC(=O)c1ccc(C(C)(C)C)s1)C(=O)O [Compound 57] | 500 to 2500 nM
16 | CCC[C@H]1CC[C@H](C2CC=C(c3cnc(-c4ccc(C[C@H](NC(=O)c5ccc(C(C)(C)C)cc5)C(=O)N5CC(C(=O)O)C5)cc4)nc3)CC2)CC1 (mixture of isomers) [Compound 14, 1-((S)-2-(4-(tert-butyl)benzamido)-3-(4-(5-((1RS,1′s,4′RS)-4′-propyl-[1,1′-bi(cyclohexan)]-3-en-4-yl)pyrimidin-2-yl)phenyl)propanoyl)azetidine-3-carboxylic acid] | < 500 nM
17 | CCCC1CCC(C2CC=C(c3cnc(-c4ccc(C[C@H](NC(=O)c5ccc(OC(C)C)cc5)C(=O)N5CC(C(=O)O)C5)cc4)nc3)CC2)CC1 (some centres unmarked) [Compound 27] | < 500 nM
18 | CCCCC1CC=C(c2cnc(-c3ccc(C[C@H](NC(=O)c4ccc(C(C)(C)C)s4)C(=O)N4CC(C(=O)O)C4)cc3)nc2)CC1 (some centres unmarked) [Compound 45] | 500 to 2500 nM
19 | CCCC1CCN(C2CC=C(c3cnc(-c4ccc(C[C@H](NC(=O)c5ccc(C(C)(C)C)s5)C(=O)N5CC(C(=O)O)C5)cc4)nc3)CC2)CC1 (some centres unmarked) [Compound 46] | 2500 to 5000 nM
20 | CC(C)(C)c1ccc(C(=O)N[C@@H](Cc2ccc(-c3ncc(C4=CCC([C@H]5CC[C@H](C)CC5)CC4)cn3)cc2)C(=O)N2CC(C(=O)O)C2)s1 (mixture of isomers) [Compound 44, 1-((S)-2-(5-(tert-butyl)thiophene-2-carboxamido)-3-(4-(5-((1RS,1′r,4′RS)-4′-methyl-[1,1′-bi(cyclohexan)]-3-en-4-yl)pyrimidin-2-yl)phenyl)propanoyl)azetidine-3-carboxylic acid] | < 500 nM
21 | CCCCCC1CC=C(c2cnc(-c3ccc(C[C@H](NC(=O)c4ccc(C(C)(C)C)s4)C(=O)N[C@H](C)C(=O)O)cc3)nc2)CC1 (some centres unmarked) [Compound 53] | 500 to 2500 nM
22 | CCCc1ccc(C(=O)N[C@@H](Cc2ccc(-c3ncc(C4=CCC(C5CCC(CCC)CC5)CC4)cn3)cc2)C(=O)N2CC(C(=O)O)C2)cc1 (some centres unmarked) [Compound 22] | < 500 nM
23 | CCCC1CCC(C2CCC(c3cnc(-c4ccc(C[C@H](NC(=O)c5ccc(C(C)C)cc5)C(=O)N5CC(C(=O)O)C5)cc4)nc3)CC2)CC1 (some centres unmarked) [Compound 12] | 2500 to 5000 nM

Further lines, results first:

Row | EC50 | Structure (SMILES)
24 | < 500 nM | C[C@@H](NC(=O)[C@H](Cc1ccc(-c2ncc(C3=CCC([C@H]4CC[C@H](C)CC4)CC3)cn2)cc1)NC(=O)c1ccc(C(C)(C)C)s1)C(=O)O (some centres unmarked) [Compound 112]
25 | < 500 nM | CC(C)(C)c1ccc(C(=O)N[C@@H](Cc2ccc(-c3ncc(C4=CCC([C@H]5CC[C@H](C)CC5)CC4)cn3)cc2)C(=O)N2CC[C@H](C(=O)O)C2)s1 (some centres unmarked) [Compound 116]
26 | < 500 nM | CC1(C)CCC(C2CC=C(c3cnc(-c4ccc(C[C@H](NC(=O)c5ccc(C(C)(C)C)s5)C(=O)N5CC(C(=O)O)C5)cc4)nc3)CC2)CC1 (some centres unmarked) [Compound 90]
27 | < 500 nM | CC[C@H]1CC[C@H](C2CC=C(c3cnc(-c4ccc(C[C@H](NC(=O)c5ccc(C6CC6)s5)C(=O)N5CC(C(=O)O)C5)cc4)nc3)CC2)CC1 (some centres unmarked) [Compound 97]
28 | < 500 nM | CCc1ccc(C(=O)N[C@@H](Cc2ccc(-c3ncc(C4=CCC(C5CCC(C)(C)CC5)CC4)cn3)cc2)C(=O)N2CC(C(=O)O)C2)s1 (some centres unmarked) [Compound 92]
29 | 500 to 2500 nM | CC[C@H]1CC[C@H](C2CC=C(c3cnc(-c4ccc(C[C@H](NC(=O)c5ccc(C(C)(C)C)s5)C(=O)O)cc4)nc3)CC2)CC1 (some centres unmarked) [Compound 119]
30 | < 500 nM | CC[C@H]1CC[C@H](C2CC=C(c3cnc(-c4ccc(C[C@H](NC(=O)c5ccc(C(C)(C)C)s5)C(=O)N5CC(C(=O)O)C5)cc4)nc3)CC2)CC1 (mixture of isomers) [Compound 76, 1-((S)-2-(5-(tert-butyl)thiophene-2-carboxamido)-3-(4-(5-((1RS,1′r,4′RS)-4′-ethyl-[1,1′-bi(cyclohexan)]-3-en-4-yl)pyrimidin-2-yl)phenyl)propanoyl)azetidine-3-carboxylic acid]
31 | < 500 nM | CCCC1CCC(C2CC=C(c3cnc(-c4ccc(C[C@H](NC(=O)c5ccc(C(C)(C)C)s5)C(=O)N[C@H](C(=O)O)[C@@H](C)O)cc4)nc3)CC2)CC1 (some centres unmarked) [Compound 74]
32 | < 500 nM | CCCC1CCC(C2CCC(c3cnc(-c4ccc(C[C@H](NC(=O)c5ccc(C(C)(C)C)s5)C(=O)N[C@H](C)C(=O)O)cc4)nc3)CC2)CC1 (some centres unmarked) [Compound 67]
33 | < 500 nM | CC[C@H]1CC[C@H](C2CC=C(c3cnc(-c4ccc(C[C@H](NC(=O)c5ccc(C(C)(C)C)s5)C(=O)N5CCC[C@H]5C(=O)O)cc4)nc3)CC2)CC1 (some centres unmarked) [Compound 105]
34 | 500 to 2500 nM | C[C@@H](NC(=O)[C@H](Cc1ccc(-c2ncc(C3=CCC(C)(C)C=C3)cn2)cc1)NC(=O)c1ccc(C(C)(C)C)s1)C(=O)O [Compound 60]
35 | 2500 to 5000 nM | C[C@@H](NC(=O)[C@H](Cc1ccc(-c2ncc(C3=CCC(NC(=O)OC(C)(C)C)CC3)cn2)cc1)NC(=O)c1ccc(C(C)(C)C)s1)C(=O)O (some centres unmarked) [Compound 64]
36 | 500 to 2500 nM | CCCC1CCC(C2CC=C(c3cnc(-c4ccc(C[C@H](NC(=O)c5ccc(C(C)(C)C)s5)C(=O)N[C@H](Cc5cnc[nH]5)C(=O)O)cc4)nc3)CC2)CC1 (some centres unmarked) [Compound 78]
37 | < 500 nM | CCC[C@H]1CC[C@H](C2CC=C(c3cnc(-c4ccc(C[C@H](NC(=O)c5ccc(C6CC6)s5)C(=O)N5CC(C(=O)O)C5)cc4)nc3)CC2)CC1 (some centres unmarked) [Compound 117]
38 | < 500 nM | CC(C)(C)c1ccc(C(=O)N[C@@H](Cc2ccc(-c3ncc(C4=CCC([C@H]5CC[C@H](C)CC5)CC4)cn3)cc2)C(=O)NCCC(=O)O)s1 (some centres unmarked) [Compound 113]
39 | < 500 nM | CC(C)(C)c1ccc(C(=O)N[C@@H](Cc2ccc(-c3ncc(C4=CCC(C5CCCCC5)CC4)cn3)cc2)C(=O)N2CC(C(=O)O)C2)s1 (some centres unmarked) [Compound 77]
40 | < 500 nM | CC(=O)C1CC=C(c2cnc(-c3ccc(C[C@H](NC(=O)c4ccc(C(C)(C)C)s4)C(=O)N[C@H](C)C(=O)O)cc3)nc2)CC1 (some centres unmarked) [Compound 61]
41 | 500 to 2500 nM | C[C@@H](NC(=O)[C@H](Cc1ccc(-c2ncc(C3=CCC(C(F)(F)F)CC3)cn2)cc1)NC(=O)c1ccc(C(C)(C)C)s1)C(=O)O (some centres unmarked) [Compound 65]
42 | 500 to 2500 nM | CC(C)(C)c1ccc(C(=O)N[C@@H](Cc2ccc(-c3ncc(C4=CCC([C@H]5CC[C@H](C)CC5)CC4)cn3)cc2)C(=O)NCC2CCNC2)s1 (some centres unmarked) [Compound 114]
43 | 500 to 2500 nM | CC1(C)CCC(C2CC=C(c3cnc(-c4ccc(C[C@H](NC(=O)c5ccc(C(C)(C)C)s5)C(=O)O)cc4)nc3)CC2)CC1 (some centres unmarked) [Compound 122]
44 | 500 to 2500 nM | CC[C@H]1CC[C@H](C2CC=C(c3cnc(-c4ccc(C[C@H](NC(=O)c5ccccc5)C(=O)N5CC(C(=O)O)C5)cc4)nc3)CC2)CC1 (some centres unmarked) [Compound 99]
